From the supplement of paper PMC10307832

Assays:
Test in all cases: relative viability (nuclei count vs DMSO), 5 days (fraction); higher = more cells survive
[1] = compound: C1=CC2=C(C=C(C(=C2N=C1)O)N=NC3=CC4=C(C=C3)C=C(C=C4)S(=O)(=O)O)S(=O)(=O)O + C[C@]1(O)C[C@@H](c2nc(-c3ccc4ccc(-c5ccccc5)nc4c3)c3c(N)nccn32)C1 [Linsitinib] (partner 1 µM)
In short: (§1)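 Relative viability divides the nuclei count in treated wells by that in vehicle wells. Lung cancer cell lines were seeded in 1536-well plates, dosed by pin tool the next day, and fixed and stained after 5 days in one step with final 0.05% Triton X-100, 1% formaldehyde and 1 ug/ml Hoechst. Dosing was a single drug or a fixed anchor-drug dose plus five library-drug doses (not always all listed) in √10 steps, and values are medians of duplicate plates imaged at 4×.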

[2] = compound: O=C(NC1CCNCC1)c1n[nH]cc1NC(=O)c1c(Cl)cccc1Cl [AT-7519] + CC(=O)c1c(C)c2cnc(Nc3ccc(N4CCNCC4)cn3)nc2n(C2CCCC2)c1=O [Palbociclib] (partner 0.5 µM)
In short: as §1

[3] = compound: O=C(NC1CCNCC1)c1n[nH]cc1NC(=O)c1c(Cl)cccc1Cl [AT-7519] + Nc1ncn([C@H]2C[C@H](O)[C@@H](CO)O2)c(=O)n1 [Decitabine] (partner 2 µM)
In short: as §1

[4] = compound: C1=CC2=C(C=C(C(=C2N=C1)O)N=NC3=CC4=C(C=C3)C=C(C=C4)S(=O)(=O)O)S(=O)(=O)O + C[C@@H](Oc1cc(-c2cnn(C3CCNCC3)c2)cnc1N)c1c(Cl)ccc(F)c1Cl [Crizotinib] (partner 1 µM)
In short: as §1

Cell Line	relative viability ([1]; first compound 0.08 µM)	relative viability ([1]; first compound 0.253 µM)	relative viability ([1]; first compound 0.8 µM)	relative viability ([1]; first compound 2.53 µM)	relative viability ([1]; first compound 8 µM)	relative viability ([2]; first compound 0.01 µM)	relative viability ([2]; first compound 0.03162 µM)	relative viability ([2]; first compound 0.3162 µM)	relative viability ([2]; first compound 1 µM)	relative viability ([3]; first compound 0.01 µM)	relative viability ([3]; first compound 0.03162 µM)	relative viability ([3]; first compound 0.3162 µM)	relative viability ([3]; first compound 1 µM)	relative viability ([4]; first compound 0.08 µM)	relative viability ([4]; first compound 0.253 µM)	relative viability ([4]; first compound 0.8 µM)	relative viability ([4]; first compound 2.53 µM)	relative viability ([4]; first compound 8 µM)
NCI-H23	0.625	0.446	0.63	0.722	0.578	0.594	0.508	0.482	0.292	0.296	0.296	0.298	0.254	0.539	0.614	0.463	0.533	0.51
NCI-H322M	0.905	0.925	0.845	0.916	0.99	0.501	0.486	0.419	0.473	0.654	0.643	0.631	0.554	1.12	0.892	0.904	1.07	1.02
NCI-H358	0.796	0.682	0.724	0.74	0.336	0.138	0.139	0.108	0.119	0.202	0.193	0.198	0.112	0.582	0.606	0.616	0.618	0.351
NCI-H441	0.51	0.527	0.458	0.551	0.354	0.202	0.195	0.141	0.163	0.253	0.213	0.26	0.152	0.762	0.672	0.631	0.714	0.601
NCI-H460	1.08	0.809	0.757	0.889	0.665	0.137	0.142	0.0995	0.019	0.452	0.432	0.388	0.0681	1.16	0.98	0.85	1.09	0.836
NCI-H520	1.1	1.12	1.07	0.968	1.01	0.226	0.197	0.209	0.194	0.547	0.492	0.507	0.395	0.973	0.808	0.802	0.692	0.869
NCI-H647	1.18	1.16	1.25	1.09	1.03	0.442	0.369	0.413	0.19	0.379	0.37	0.416	0.237	1.36	0.865	1.05	1.08	0.962
NCI-H650	0.652	0.755	0.884	0.769	0.576	0.329	0.335	0.296	0.452	0.387	0.281	0.335	0.274	0.738	0.79	0.764	0.712	0.818
NCI-H661	0.74	0.57	0.489	0.498	0.512	0.382	0.432	0.4	0.256	0.568	0.538	0.534	0.254	1.03	0.905		1.01	0.971
NCI-H727	0.223	0.287	0.371	0.32	0.269	0.621	0.698	0.658	0.427	0.927	0.746	0.874	0.509	1.17	0.76	0.798	0.936	0.772
NCI-H838	1.17	0.996	0.979	0.975	1.02	0.233	0.21	0.194	0.1	0.479	0.45	0.383	0.152	0.992	0.734	0.848	0.943	0.811
NCI-H1355	0.951	0.79	0.839	0.863	0.817	0.348	0.389	0.359	0.589	0.347	0.347	0.359	0.331	1.16	1.04	0.986	1.17	1.14
NCI-H1437	1.14	1.06	0.99	1.01	1.03	0.282	0.319	0.295	0.251	0.527	0.59	0.548	0.347	1.07	0.894	0.897	0.909	0.919
NCI-H1651	1.01	0.966	1.06	0.922	0.925	0.517	0.504	0.547	0.534	0.678	0.555	0.626	0.614	0.968	0.834	0.837	0.874	0.729
NCI-H1666	0.876	0.831	0.74	0.84	0.673	0.642	0.658	0.674	0.655	0.819	0.725	0.774	0.673	1.22	0.949	0.95	1.06	0.946
NCI-H1734	0.909	0.877	0.816	0.884	0.897	0.288	0.319	0.353	0.167	0.46	0.463	0.486	0.351	0.733	0.66	0.724	0.64	0.662
NCI-H1755	1.08	0.969	0.954	1.05	0.991	0.477	0.478	0.435	0.458	0.724	0.721	0.825	0.716	0.977	0.819	0.858	0.938	0.849
NCI-H1792	0.667	0.48	0.619	0.592	0.565			0.692	0.837	0.405	0.488	0.495	0.54	1.15	0.947	0.933	1.02	0.961
